Consider three compounds from US20230346774A1, “METHODS OF STIMULATING AN ANTI-TUMOR RESPONSE USING A SELECTIVE GLUCOCORTICOID RECEPTOR MODULATOR” (Corcept Therapeutics Incorporated, priority 2020, published 2023).

One data set concerns healthy volunteers. The data set can be described thus: Phase I healthy volunteer studies (prednisone challenge). To be noted: for NLR: healthy volunteers with normal cortisol levels. The format is in vivo, human. The source says: (§1) GR is a broad regulator of immunosuppressive transcriptional programs, so we first assessed the transcriptional effects of prednisone in and/or relacorilant in whole blood. […] These three genes are known to play a role in suppressing the cytotoxic T-cell response.

The target in data set [1] is T1, GR (Homo sapiens, UniProt P04150).
T1 sequence (P04150 1-777): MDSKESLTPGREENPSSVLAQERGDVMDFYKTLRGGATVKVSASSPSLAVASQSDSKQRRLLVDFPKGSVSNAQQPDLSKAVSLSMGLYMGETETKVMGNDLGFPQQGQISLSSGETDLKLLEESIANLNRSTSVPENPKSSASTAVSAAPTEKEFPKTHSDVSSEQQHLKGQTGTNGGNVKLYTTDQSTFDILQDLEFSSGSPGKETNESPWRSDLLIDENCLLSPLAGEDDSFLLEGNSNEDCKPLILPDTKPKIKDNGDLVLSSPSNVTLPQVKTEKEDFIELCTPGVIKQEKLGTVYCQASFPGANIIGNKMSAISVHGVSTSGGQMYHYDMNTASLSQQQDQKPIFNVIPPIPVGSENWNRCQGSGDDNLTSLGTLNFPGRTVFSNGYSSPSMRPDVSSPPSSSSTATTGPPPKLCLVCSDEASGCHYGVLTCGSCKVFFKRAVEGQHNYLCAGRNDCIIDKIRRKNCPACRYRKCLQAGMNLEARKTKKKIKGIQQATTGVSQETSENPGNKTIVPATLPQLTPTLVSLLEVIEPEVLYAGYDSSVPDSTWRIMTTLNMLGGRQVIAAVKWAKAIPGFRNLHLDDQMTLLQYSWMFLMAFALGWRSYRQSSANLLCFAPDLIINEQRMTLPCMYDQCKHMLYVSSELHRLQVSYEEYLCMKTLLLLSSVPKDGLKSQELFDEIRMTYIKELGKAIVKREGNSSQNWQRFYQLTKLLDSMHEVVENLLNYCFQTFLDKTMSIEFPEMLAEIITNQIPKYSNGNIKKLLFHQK
The data set can be described thus: GR binding. Conditions: read-out: Half-maximal GR binding.

The target of data set [2] is T2, progesterone receptor (PR) (Homo sapiens, UniProt P06401).
T2 sequence (P06401 1-933): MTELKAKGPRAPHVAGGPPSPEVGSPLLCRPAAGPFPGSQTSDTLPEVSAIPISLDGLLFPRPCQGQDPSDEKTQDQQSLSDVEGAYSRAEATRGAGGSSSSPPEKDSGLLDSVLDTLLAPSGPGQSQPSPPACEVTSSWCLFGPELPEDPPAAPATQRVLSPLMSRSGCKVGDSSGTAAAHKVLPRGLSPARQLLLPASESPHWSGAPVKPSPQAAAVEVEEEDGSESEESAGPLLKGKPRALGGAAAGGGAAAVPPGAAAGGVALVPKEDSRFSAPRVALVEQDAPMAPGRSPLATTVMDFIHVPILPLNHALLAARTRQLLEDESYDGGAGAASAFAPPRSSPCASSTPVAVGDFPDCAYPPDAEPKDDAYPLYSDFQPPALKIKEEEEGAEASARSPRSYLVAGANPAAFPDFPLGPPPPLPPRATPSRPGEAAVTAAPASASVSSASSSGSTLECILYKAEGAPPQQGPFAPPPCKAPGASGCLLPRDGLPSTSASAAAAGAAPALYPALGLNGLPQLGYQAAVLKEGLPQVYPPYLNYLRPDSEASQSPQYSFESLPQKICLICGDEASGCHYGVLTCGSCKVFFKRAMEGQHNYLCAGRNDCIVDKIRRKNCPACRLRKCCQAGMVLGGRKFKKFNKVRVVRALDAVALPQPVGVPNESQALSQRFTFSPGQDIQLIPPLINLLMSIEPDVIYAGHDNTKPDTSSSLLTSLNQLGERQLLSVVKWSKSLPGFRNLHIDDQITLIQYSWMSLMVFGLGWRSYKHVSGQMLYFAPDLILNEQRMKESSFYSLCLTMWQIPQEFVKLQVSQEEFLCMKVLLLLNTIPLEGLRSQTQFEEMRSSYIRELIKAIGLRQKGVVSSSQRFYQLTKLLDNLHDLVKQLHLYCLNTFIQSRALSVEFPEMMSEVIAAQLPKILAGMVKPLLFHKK
The data set can be described thus: PR binding. Conditions: binding not observed at these concentrations.

The subject of a further data set is human stimulated PBMCs. The experiment in a line: Restoration of TNF-α production in stimulated PBMCs suppressed by GR agonists. The format is cell-based. To be noted: PBMC, read-out: restoration of TNF-α production, half maximal effect.
Data set [3] relates to rat model of corticosterone-induced insulin resistance. The experiment in a line: Rat model of corticosterone-induced insulin resistance. The data set is classed as in vivo. Conditions: oral, doses giving systemic exposure similar to phase I studies.
Data set [4] concerns the target T1, GR. The data set can be described thus: GR inverse agonism.
In data set [5] the test system is patients with Cushing’s disease. The experiment in a line: Phase II study in patients with Cushing’s disease. The format is in vivo, human.
A further data set deals with stimulated human PBMC’s. The data set can be described thus: Activation of stimulated human PBMCs (PHA or αCD3+IL-12) +/- cortisol or cortisol + relacorilant. The data set is classed as cell-based. Conditions: for cytokines and chemokines (including IFNγ, IL-1β, IL-1α, IL-6): PHA or αCD3 stimulation; for cytokines and chemokines (including IFNγ, IL-1β, IL-1α, IL-6) / Expression of CD137 (aka 41-BB) on CD8+ cells: physiological cortisol; for CD3+ cell surface receptors: PHA stimulation; for inflammatory cytokines such as TNF-α: induced by stimulation; for inflammatory cytokines such as TNF-α / Expression of CD137 (aka 41-BB) on CD8+ cells: relacorilant in presence of cortisol; for CD8+ T-cell activation / pro-inflammatory cytokine secretion (TNFα, IFNγ): αCD3+IL-12; for CD8+ T-cell activation: P<0.001; for pro-inflammatory cytokine secretion (TNFα, IFNγ): TNFα P=0.006, IFNγ P<0.05. As for the experimental part: To understand the molecular consequences of GC activity on T-cell activation, the effects of cortisol and relacorilant were assessed on stimulated human PBMC’s. […] Expression of CD137 (aka 41-BB) on CD8+ cells was reduced by cortisol and rescued by relacorilant. […] Expression of CD137 (aka 41-BB) within CD8+ cells was reduced by cortisol and rescued by relacorilant. […] Thus, as shown also in FIG. 4, inflammatory cytokines such as TNF-α were induced by stimulation, suppressed by cortisol, and rescued by relacorilant. […] FIG. 6A and FIG. 6B show, following stimulation by phytohemagglutinin (PHA) (FIG. 6A) or αCD3 (FIG. 6B), suppression of cytokines and chemokines by cortisol and the restoration of cytokine/chemokine levels by relacorilant. (Supernatant IL-12 measurements were excluded from the analysis shown in FIG. 6B since the stimulation included recombinant IL-12.) Physiological levels of cortisol suppressed cytokines and chemokines, and this suppression was reversed by relacorilant.
(§2) Methods: Immune cell abundance and GR expression were assessed by IHC and calculated based on The Cancer Genome Atlas (TCGA) data. Human PBMCs were stimulated with αCD3+IL-12 +/- cortisol or cortisol + relacorilant. EG7 tumor-bearing mice were treated with αPD1 (RMP1-14) ip (intraperitoneally) Q5D (every fifth day) +/- daily relacorilant (QD). Whole blood mRNA was measured via Nanostring, hematology was performed using standard complete blood count assays, and cytokines were assessed by immunoassays in study NCT02762981.

Data set [6] concerns EG7 tumor cells. The data set can be described thus: EG7 tumor model in WT mice, αPD1 (RMP1-14) +/- relacorilant. The data set is classed as in vivo, mouse. To be noted: for TNFα levels in terminal sera: sera collected between days 11 and 21. How it is done:
The combination of PD1 antagonist antibody (RMP1-14) and relacorilant was assessed in the EG7 tumor model. Most reports have assessed αPD1 effects on EG7 cells in WT mice without added cortisol, so this more established model was used.
as §2

The subject of data set [7] is patients with advanced solid tumors. The data set can be described thus: Phase I study of relacorilant+nab-paclitaxel in solid tumor patients (NCT02762981). Conditions: human, in vivo. How it is done: as §1, §2
For data set [8], the system named is E.G7-OVA mouse lymphoma cells. The data set can be described thus: Short term (7-day) EG7 pharmacodynamic study in B6 CD45.1 mice. The data set is classed as in vivo. As for the experimental part:
A short term (7-day) EG7 pharmacodynamic study was conducted in female B6 CD45.1 mice to assess the effects of relacorilant+ αPD1 on T-cell proliferation and activation. Spleen and portions of tumor from B6 CD45.1 female mice subcutaneously inoculated with E.G7-OVA mouse lymphoma cells and treated with CORT125134 (30 mg/kg, administered p.o. once daily for 7 days) and RMP1-14 (10 mg/kg, administered i.p. on every fifth day for a total of two doses), alone and in combination, were analyzed via flow cytometry. Unlike the previous study, cell and cytokine analyses were synchronized and occurred before differences in tumor volume were detected (FIG. 14). Thus, in this study, changes in tumor volumes cannot influence the cytokine or T-cell measurements. There were no adverse effects of the treatments on clinical signs or body weight changes.
Antigen specific T-cells are key mediators of the anti-tumor immune response. The EG7 model expresses the model antigen ovalbumin. Antigen specific T-cells can be quantified by measuring T-cells that recognize ovalbumin. Cells which bind T-cells markers (such as anti-CD3 and anti-CD8) and bind labeled ovalbumin tetramers are thus considered antigen specific T-cells. Antigen specific T-cells were increased by the combination of relacorilant + αPD1 in the spleen and tumor (FIG. 15). […]

In data set [9] the test system is EG7 tumor cells. The experiment in a line: EG7 syngeneic model in OT-1/Rag-/- mice with cortisol in drinking water. How it is done:
The suppressive effects of cortisol on CD8+ cytotoxic T-cells, and the ability of relacorilant to promote T-cell activation, were assessed in the EG7 syngeneic mouse model. EG7 tumor cells express ovalbumin, and the model was studied both in WT or OT-1/Rag^-/- mice. The OT-1/Rag^-/- mice only have T-cells expressing a transgenic ovalbumin-specific TCR. […] The combination of PD1 antagonist antibody (RMP1-14) and relacorilant was assessed in the EG7 tumor model.

As to `C[C@]12C=CC(=O)C=C1CC[C@@H]1[C@@H]2C(=O)C[C@@]2(C)[C@H]1CC[C@]2(O)C(=O)CO` [prednisone, reference compound], the “transcriptional effect in whole blood” value with healthy volunteers (25 mg dose, 4 hours post dose) is “large transcriptional effect”. Further, the NLR entry with healthy volunteers was “rapid an acute increase”.

For the compound `Cn1cc(S(=O)(=O)N2CCC3=Cc4c(cnn4-c4ccc(F)cc4)C[C@]3(C(=O)c3cc(C(F)(F)F)ccn3)C2)cn1` [relacorilant, (R)-(1-(4-fluorophenyl)-6-((1-methyl-1H-pyrazol-4-yl)sulfonyl)-4,4a,5,6,7,8-hexahydro-1H-pyrazolo[3,4-g]isoquinolin-4a-yl)(4-(trifluoromethyl)pyridin-2-yl)methanone], at GR [1], the IC50 was 0.15 nM. In data set [2], this compound displayed an IC50 of more than 1000 nM. For the same compound, the EC50 in the data set on human stimulated PBMCs worked out at 9 nM. Also, the glucose and insulin entry in data set [3] is “normalized glucose and insulin”. Also, in the data set on healthy volunteers (healthy volunteers), the tolerability result is given as “demonstrated tolerability”. The NLR result in the data set on healthy volunteers is reported as “does not affect NLR”. In the data set with healthy volunteers (prednisone challenge), the “GR agonist induction of FKBP5 mRNA in whole blood” value is “reversed” and the “GR agonist suppression of eosinophil abundance in whole blood” value was “reversed”. Moreover, the “prednisone-induced increase in the NLR” value in the data set on healthy volunteers (relacorilant co-dosed with prednisone) is on record as “reversed”. The GR inverse agonism result at GR [4] is “not observed”. In addition, in data set [5], the “effects of excess cortisol on hypertension and insulin resistance” value was “demonstrated the ability to reverse”. Moreover, in the data set on stimulated human PBMC’s, the “cytokines and chemokines (including IFNγ, IL-1β, IL-1α, IL-6)” value is on record as “reversed”; the “CD3+ cell surface receptors” value is reported as “restoration”; the “inflammatory cytokines such as TNF-α” value is reported as “rescued”; the “Expression of CD137 (aka 41-BB) on CD8+ cells” value is listed as “rescued”. In the data set on stimulated human PBMC’s, the “CD8+ T-cell activation” value was “restored” and the “pro-inflammatory cytokine secretion (TNFα, IFNγ)” value is listed as “restored”. Besides, in the data set with EG7 tumor cells [6] (P<0.002), the “circulating IL-10” value is on record as “decreased”. Besides, in the data set with EG7 tumor cells [6] (P=0.007), the αPD1 efficacy result is reported as “increased”. Besides, the “effect on tumor growth” value with EG7 tumor cells [6] (WT mice without added cortisol) was “no significant effect”. Also, in the data set with EG7 tumor cells [6], the “TNFα levels in terminal sera” value was “increased”. For the same compound, in data set [7], the “NLR in cancer patients with elevated baseline NLR” value was “lowers”. Further, in data set [8] (7 days), the “PD1 expression in splenic CD8 T-cells” value is “sufficient to induce”. The “PD-1+ as % CD8+ cells in spleens” value in [8] (vs Vehicle Control) is given as “significant (p≤0.05) increase”.

Regarding cortisol, in the data set on stimulated human PBMC’s (400 nM cortisol, PHA or αCD3+IL-12), the “phenotypic effects of stimulation” value is recorded as “potently suppressed nearly every phenotypic effect of stimulation”. In addition, in the data set on stimulated human PBMC’s, the “cytokines and chemokines (including IFNγ, IL-1β, IL-1α, IL-6)” value is recorded as “suppressed”; the “CD3+ cell surface receptors” value is given as “suppression”; the “inflammatory cytokines such as TNF-α” value was “suppressed”; the “Expression of CD137 (aka 41-BB) on CD8+ cells” value is reported as “reduced”. For the same compound, in the data set with stimulated human PBMC’s, the “CD8+ T-cell activation” value was “inhibited” and the “pro-inflammatory cytokine secretion (TNFα, IFNγ)” value was “inhibited”. Also, in the data set with EG7 tumor cells [9] (OT-1/Rag-/- mice), the “mice with measurable tumors by day 10” value is listed as “All mice” and the tumor growth entry was “rapid tumor growth”. In addition, the “histologically confirmed complete remissions” value in the data set on EG7 tumor cells [9] (OT-1/Rag-/- mice given cortisol +/- relacorilant) is “none”. Moreover, the Premature deaths in the data set on EG7 tumor cells [9] (OT-1/Rag-/- mice, 0/5 in controls) is on record as 2/5. For the same compound, the “tumor growth on excess cortisol administration” value with EG7 tumor cells [6] (cortisol added to relacorilant treatment) is on record as “restored tumor growth”. The “tumor control or growth” value with EG7 tumor cells [6] (cortisol in drinking water of wild type (WT) mice) is “no effect on tumor control or growth”. Further, the “TNFα levels in terminal sera” value in the data set with EG7 tumor cells [6] is “suppressed”.
